Source: patent publication US20260070945A1, “MACROCYCLIC IMMUNOMODULATORS” (Bristol-Myers Squibb Company, priority 2022, published 2026)
Where a SMILES comes first, the peptide text is derived from it. Bridges are numbered along the chain shown (N, C = ends). [ ]: non-standard residue; d: D form. The star is where a group is joined. ξ: configuration not given here. Bip = N[C@@H](Cc1ccc(-c2ccccc2)cc1)C(=O)O; Phe(3-Me) = Cc1cccc(C[C@H](N)C(=O)O)c1; Cyclopropanecarbonyl = O=C(C1CC1)*; Val(3-OH) = CC(C)(O)[C@H](N)C(=O)O; hArg = N=C(N)NCCCC[C@H](N)C(=O)O; 4Pal = N[C@@H](Cc1ccncc1)C(=O)O; Cha = N[C@@H](CC1CCCCC1)C(=O)O; Cit = NC(=O)NCCC[C@H](N)C(=O)O; Thr(3ξ) = CC(O)[C@H](N)C(=O)O; 12Ado = NCCCCCCCCCCCC(=O)O; Carboxymethyl = O=C(O)C*; NMeA = CN[C@@H](C)C(=O)O; Orn = NCCC[C@H](N)C(=O)O; Aun = NCCCCCCCCCCC(=O)O; Dab = NCC[C@H](N)C(=O)O; Dap = NC[C@H](N)C(=O)O; X12 = CC(C)(F)C(=O)*

Target: T1, PD-1/PD-L1 interaction (PE-labeled human PD-L1-Ig binding to Jurkat cell line over-expressing human PD-1) (Homo sapiens, UniProt Q15116)
T1 construct: expressed in transfected cells; host or cells: Jurkat
T1 sequence (Q15116 25-288): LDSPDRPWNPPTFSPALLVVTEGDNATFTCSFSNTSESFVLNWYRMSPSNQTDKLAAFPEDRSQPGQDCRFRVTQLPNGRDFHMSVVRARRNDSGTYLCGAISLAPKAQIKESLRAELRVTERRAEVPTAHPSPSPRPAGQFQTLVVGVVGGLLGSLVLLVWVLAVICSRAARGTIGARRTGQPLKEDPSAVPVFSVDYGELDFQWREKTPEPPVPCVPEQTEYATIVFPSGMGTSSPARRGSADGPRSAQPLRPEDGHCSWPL
Experiment: Jurkat-PD-1 Cell Binding High-Content Screening Assay (CBA)
Settings: Jurkat-hPD-1 cells, PE-labeled PD-L1-Ig 20 nM final; read-out: Jurkat HPD1 PDL1 IC50
Summary of the method: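 Compound is added first to the PD-1-expressing Jurkat cells and held 2 h at 37 °C in serum-containing DMEM. The fluorescent PD-L1 fusion follows at 20 nM final for 1 h. Fixed, Hoechst-stained cells are then imaged for bound label.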

| IC50 | SMILES |
| --- | --- |
| 29.6 nM | Cc1cccc(C[C@@H]2NC(=O)[C@H](CC(=O)O)NC(=O)[C@H](Cc3ccc(OCC(=O)O)cc3)NC(=O)[C@H](CCCNC(=N)N)NC(=O)CSC[C@@H](C(=O)N[C@H](CCC(=O)O)C(=O)NCCCCCCCCCCC(=O)O)NC(=O)[C@H](C(C)O)NC(=O)[C@H](C(C)C)NC(=O)[C@H](CC3CCCCC3)NC(=O)[C@H](CCN)NC(=O)[C@@H](CC(C)C)NC(=O)[C@H](C)N(C)C(=O)[C@H](CCCNC(N)=O)NC(=O)[C@H](Cc3ccc(-c4ccccc4)cc3)NC(=O)[C@H](C(C)C)NC2=O)c1 (stereo partly drawn) [Example 2392] ({CH2CO}-RY(Carboxymethyl)D[Phe(3-Me)]V[Bip][Cit][NMeA][dL][Dab][Cha]V[Thr(3ξ)]C[dE][Aun]-OH; thioether N-14) |
| 15.7 nM | Cc1cccc(C[C@@H]2NC(=O)[C@H](CC(=O)O)NC(=O)[C@H](Cc3ccc(OCC(=O)O)cc3)NC(=O)[C@H](C(C)O)NC(=O)CSC[C@@H](C(=O)N[C@@H](CCCN)C(=O)N[C@@H](CO)C(=O)NCCCCCCCCCCCC(=O)O)NC(=O)[C@H](CO)NC(=O)[C@H](C(C)(C)O)NC(=O)[C@H](CC3CCCCC3)NC(=O)[C@H](CCN)NC(=O)[C@@H](CC(C)C)NC(=O)[C@H](C)N(C)C(=O)[C@H](CCCNC(N)=O)NC(=O)[C@H](Cc3ccc(-c4ccccc4)cc3)NC(=O)[C@H](C(C)C)NC2=O)c1 (stereo partly drawn) [Example 2394] ({CH2CO}-[Thr(3ξ)]Y(Carboxymethyl)D[Phe(3-Me)]V[Bip][Cit][NMeA][dL][Dab][Cha][Val(3-OH)]SC[Orn]S[12Ado]-OH; thioether N-14) |
| 16.6 nM | Cc1cccc(C[C@@H]2NC(=O)[C@H](CC(=O)O)NC(=O)[C@H](Cc3ccc(OCC(=O)O)cc3)NC(=O)[C@H](CCCCNC(=N)N)NC(=O)CSC[C@@H](C(=O)N[C@@H](CCN)C(=O)NCCCCCCCCCCC(=O)O)NC(=O)[C@H](C(C)O)NC(=O)[C@H](C(C)C)NC(=O)[C@H](CC3CCCCC3)NC(=O)[C@H](CCN)NC(=O)[C@@H](CC(C)C)NC(=O)[C@H](C)N(C)C(=O)[C@H](CCCNC(=O)C3CC3)NC(=O)[C@H](Cc3ccc(-c4ccccc4)cc3)NC(=O)[C@H](Cc3ccc(O)cc3)NC2=O)c1 (stereo partly drawn) [Example 2398] ({CH2CO}-[hArg]Y(Carboxymethyl)D[Phe(3-Me)]Y[Bip][Orn](Cyclopropanecarbonyl)[NMeA][dL][Dab][Cha]V[Thr(3ξ)]C[Dab][Aun]-OH; thioether N-14) |
| 14.1 nM | Cc1cccc(C[C@@H]2NC(=O)[C@H](CC(=O)O)NC(=O)[C@H](Cc3ccc(OCC(=O)O)cc3)NC(=O)[C@H](CCCCNC(=N)N)NC(=O)CSC[C@@H](C(=O)N[C@@H](CCN)C(=O)NCCCCCCCCCCC(=O)O)NC(=O)[C@H](C(C)O)NC(=O)[C@H](C(C)C)NC(=O)[C@H](CC3CCCCC3)NC(=O)[C@H](CCN)NC(=O)[C@@H](CC(C)C)NC(=O)[C@H](C)N(C)C(=O)[C@H](CCCCNC(=O)C3CC3)NC(=O)[C@H](Cc3ccc(-c4ccccc4)cc3)NC(=O)[C@H](Cc3ccc(O)cc3)NC2=O)c1 (stereo partly drawn) [Example 2399] ({CH2CO}-[hArg]Y(Carboxymethyl)D[Phe(3-Me)]Y[Bip]K(Cyclopropanecarbonyl)[NMeA][dL][Dab][Cha]V[Thr(3ξ)]C[Dab][Aun]-OH; thioether N-14) |
| 11 nM | Cc1cccc(C[C@@H]2NC(=O)[C@H](CC(=O)O)NC(=O)[C@H](Cc3ccc(OCC(=O)O)cc3)NC(=O)[C@H](CCCNC(=O)C3CC3)NC(=O)CSC[C@@H](C(=O)N[C@@H](CCN)C(=O)NCCCCCCCCCCC(=O)O)NC(=O)[C@H](C(C)O)NC(=O)[C@H](C(C)C)NC(=O)[C@H](CC3CCCCC3)NC(=O)[C@H](CCN)NC(=O)[C@@H](CC(C)C)NC(=O)[C@H](C)N(C)C(=O)[C@H](CCCNC(N)=O)NC(=O)[C@H](Cc3ccc(-c4ccccc4)cc3)NC(=O)[C@H](Cc3ccc(O)cc3)NC2=O)c1 (stereo partly drawn) [Example 2400] ({CH2CO}-[Orn](Cyclopropanecarbonyl)Y(Carboxymethyl)D[Phe(3-Me)]Y[Bip][Cit][NMeA][dL][Dab][Cha]V[Thr(3ξ)]C[Dab][Aun]-OH; thioether N-14) |
| 94.4 nM | Cc1cccc(C[C@@H]2NC(=O)[C@H](CC(=O)O)NC(=O)[C@H](Cc3ccc(OCC(=O)O)cc3)NC(=O)[C@H](CCCNC(=O)C(C)(C)F)NC(=O)CSC[C@@H](C(=O)N[C@@H](CCCN)C(=O)N[C@@H](CO)C(=O)NCCCCCCCCCCCC(=O)O)NC(=O)[C@H](C(C)O)NC(=O)[C@H](C(C)C)NC(=O)[C@H](CC3CCCCC3)NC(=O)[C@H](CCN)NC(=O)[C@@H](CC(C)C)NC(=O)[C@H](C)N(C)C(=O)[C@H](CCCNC(N)=O)NC(=O)[C@H](Cc3ccc(-c4ccccc4)cc3)NC(=O)[C@H](Cc3ccc(O)cc3)NC2=O)c1 (stereo partly drawn) [Example 2401] ({CH2CO}-[Orn](X12)Y(Carboxymethyl)D[Phe(3-Me)]Y[Bip][Cit][NMeA][dL][Dab][Cha]V[Thr(3ξ)]C[Orn]S[12Ado]-OH; thioether N-14) |
| 51.7 nM | Cc1cccc(C[C@@H]2NC(=O)[C@H](CC(=O)O)NC(=O)[C@H](Cc3ccc(OCC(=O)O)cc3)NC(=O)[C@H](CN)NC(=O)CSC[C@@H](C(=O)N[C@@H](CCCN)C(=O)N[C@@H](CO)C(=O)NCCCCCCCCCCCC(=O)O)NC(=O)[C@H](C(C)O)NC(=O)[C@H](C(C)C)NC(=O)[C@H](CC3CCCCC3)NC(=O)[C@H](CCN)NC(=O)[C@@H](CC(C)C)NC(=O)[C@H](C)N(C)C(=O)[C@H](CCCNC(N)=O)NC(=O)[C@H](Cc3ccc(-c4ccccc4)cc3)NC(=O)[C@H](Cc3ccc(O)cc3)NC2=O)c1 (stereo partly drawn) [Example 2402] ({CH2CO}-[Dap]Y(Carboxymethyl)D[Phe(3-Me)]Y[Bip][Cit][NMeA][dL][Dab][Cha]V[Thr(3ξ)]C[Orn]S[12Ado]-OH; thioether N-14) |
| 47.9 nM | Cc1cccc(C[C@@H]2NC(=O)[C@H](CC(=O)O)NC(=O)[C@H](Cc3ccc(OCC(=O)O)cc3)NC(=O)[C@H](Cc3ccncc3)NC(=O)CSC[C@@H](C(=O)N[C@@H](CCCN)C(=O)N[C@@H](CO)C(=O)NCCCCCCCCCCCC(=O)O)NC(=O)[C@H](C(C)O)NC(=O)[C@H](C(C)C)NC(=O)[C@H](CC3CCCCC3)NC(=O)[C@H](CCN)NC(=O)[C@@H](CC(C)C)NC(=O)[C@H](C)N(C)C(=O)[C@H](CCCNC(=O)C3CC3)NC(=O)[C@H](Cc3ccc(-c4ccccc4)cc3)NC(=O)[C@H](Cc3ccc(O)cc3)NC2=O)c1 (stereo partly drawn) [Example 2403] ({CH2CO}-[4Pal]Y(Carboxymethyl)D[Phe(3-Me)]Y[Bip][Orn](Cyclopropanecarbonyl)[NMeA][dL][Dab][Cha]V[Thr(3ξ)]C[Orn]S[12Ado]-OH; thioether N-14) |
| 40.9 nM | Cc1cccc(C[C@@H]2NC(=O)[C@H](CC(=O)O)NC(=O)[C@H](Cc3ccc(OCC(=O)O)cc3)NC(=O)[C@H](Cc3ccncc3)NC(=O)CSC[C@@H](C(=O)N[C@@H](CCCN)C(=O)N[C@@H](CO)C(=O)NCCCCCCCCCCCC(=O)O)NC(=O)[C@H](C(C)O)NC(=O)[C@H](C(C)C)NC(=O)[C@H](CC3CCCCC3)NC(=O)[C@H](CCN)NC(=O)[C@@H](CC(C)C)NC(=O)[C@H](C)N(C)C(=O)[C@H](CCCCNC(=O)C3CC3)NC(=O)[C@H](Cc3ccc(-c4ccccc4)cc3)NC(=O)[C@H](Cc3ccc(O)cc3)NC2=O)c1 (stereo partly drawn) [Example 2404] ({CH2CO}-[4Pal]Y(Carboxymethyl)D[Phe(3-Me)]Y[Bip]K(Cyclopropanecarbonyl)[NMeA][dL][Dab][Cha]V[Thr(3ξ)]C[Orn]S[12Ado]-OH; thioether N-14) |
| 75.3 nM | CC(=O)NCCCC[C@@H]1NC(=O)[C@H](Cc2ccc(-c3ccccc3)cc2)NC(=O)[C@H](C(C)C)NC(=O)[C@H](Cc2c[nH]c3ccccc23)NC(=O)[C@H](CC(=O)O)NC(=O)[C@H](Cc2ccc(OCC(=O)O)cc2)NC(=O)[C@H](C(C)O)NC(=O)CSC[C@@H](C(=O)N[C@@H](CCCN)C(=O)N[C@@H](CO)C(=O)NCCCCCCCCCCCC(=O)O)NC(=O)[C@H](C(C)O)NC(=O)[C@H](C(C)C)NC(=O)[C@H](CC2CCCCC2)NC(=O)[C@H](CCN)NC(=O)[C@@H](CC(C)C)NC(=O)[C@H](C)N(C)C1=O (stereo partly drawn) [Example 2405] ({CH2CO}-[Thr(3ξ)]Y(Carboxymethyl)DWV[Bip]K(Ac)[NMeA][dL][Dab][Cha]V[Thr(3ξ)]C[Orn]S[12Ado]-OH; thioether N-14) |
| 159 nM | CC(=O)NCCCC[C@@H]1NC(=O)[C@H](Cc2ccc(-c3ccccc3)cc2)NC(=O)[C@H](C(C)C)NC(=O)[C@H](Cc2c[nH]c3ccccc23)NC(=O)[C@H](CC(=O)O)NC(=O)[C@H](Cc2ccc(OCC(=O)O)cc2)NC(=O)[C@H](C(C)O)NC(=O)CSC[C@@H](C(=O)N[C@@H](CCCN)C(=O)N[C@@H](CO)C(=O)NCCCCCCCCCCCC(=O)O)NC(=O)[C@H](CCCN)NC(=O)[C@H](C(C)C)NC(=O)[C@H](CC2CCCCC2)NC(=O)[C@H](CCN)NC(=O)[C@@H](CC(C)C)NC(=O)[C@H](C)N(C)C1=O (stereo partly drawn) [Example 2406] ({CH2CO}-[Thr(3ξ)]Y(Carboxymethyl)DWV[Bip]K(Ac)[NMeA][dL][Dab][Cha]V[Orn]C[Orn]S[12Ado]-OH; thioether N-14) |
| 66.1 nM | CC(=O)NCCCC[C@@H]1NC(=O)[C@H](Cc2ccc(-c3ccccc3)cc2)NC(=O)[C@H](C(C)C)NC(=O)[C@H](Cc2c[nH]c3ccccc23)NC(=O)[C@H](CC(=O)O)NC(=O)[C@H](Cc2ccc(OCC(=O)O)cc2)NC(=O)[C@H](CN)NC(=O)CSC[C@@H](C(=O)N[C@@H](CCCN)C(=O)N[C@@H](CO)C(=O)NCCCCCCCCCCCC(=O)O)NC(=O)[C@H](C(C)O)NC(=O)[C@H](C(C)C)NC(=O)[C@H](CC2CCCCC2)NC(=O)[C@H](CCN)NC(=O)[C@@H](CC(C)C)NC(=O)[C@H](C)N(C)C1=O (stereo partly drawn) [Example 2407] ({CH2CO}-[Dap]Y(Carboxymethyl)DWV[Bip]K(Ac)[NMeA][dL][Dab][Cha]V[Thr(3ξ)]C[Orn]S[12Ado]-OH; thioether N-14) |
